How the values were obtained:
[1] = system: barnyard grass; test: Test Example 3: herbicidal effect by foliage application, Wagner pot (Table 18, symbol H); assay type: in vivo, barnyard grass (Echinochloa crus-galli); conditions: 320 g/ha
Outline: (§1)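 Plants were sown in alluvial soil held under 0.1–0.5 cm standing water and grown 14 days in a greenhouse at 25–30 °C. An emulsifiable formulation, water-diluted to the set dose, was then sprayed onto the foliage, and effects were scored three weeks later using previously defined criteria.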

[2] = system: Chinese sprangletop; test: Test Example 3: herbicidal effect by foliage application, Wagner pot (Table 18, symbol D); assay type: in vivo, chinese sprangletop (Leptochloa chinensis); conditions: 320 g/ha
Outline: as §1

[3] = system: rice flat sedge; test: Test Example 3: herbicidal effect by foliage application, Wagner pot (Table 18, symbol E); assay type: in vivo, rice flat sedge (Cyperus iria); conditions: 320 g/ha
Outline: as §1

[4] = system: southern crabgrass; test: Test Example 4: herbicidal effect by soil treatment (Table 19, symbol F); assay type: in vivo, southern crabgrass (Digitaria ciliaris); conditions: amount of applied herbicide 320 g/ha
Outline: (§2)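 Applied as a water-diluted emulsion, the compound was sprayed onto soil covering newly sown seeds. Evaluation came three weeks after application, in a greenhouse held at 25° C. to 30° C.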

[5] = system: green foxtail; test: Test Example 4: herbicidal effect by soil treatment (Table 19, symbol G); assay type: in vivo, green foxtail (Setaria viridis); conditions: amount of applied herbicide 320 g/ha
Outline: as §2

[6] = system: barnyard grass; test: Test Example 4: herbicidal effect by soil treatment (Table 19, symbol H); assay type: in vivo, barnyard grass (Echinochloa crus-galli); conditions: amount of applied herbicide 320 g/ha
Outline: as §2

[7] = system: wild oat; test: Test Example 4: herbicidal effect by soil treatment (Table 19, symbol I); assay type: in vivo, wild oat (Avena fatua); conditions: amount of applied herbicide 320 g/ha
Outline: as §2

[8] = system: blackgrass; test: Test Example 4: herbicidal effect by soil treatment (Table 19, symbol J); assay type: in vivo, blackgrass (Alopecurus myosuroides); conditions: amount of applied herbicide 320 g/ha
Outline: as §2

[9] = system: Italian ryegrass; test: Test Example 4: herbicidal effect by soil treatment (Table 19, symbol K); assay type: in vivo, Italian ryegrass (Lolium multiflorum); conditions: amount of applied herbicide 320 g/ha
Outline: as §2

[10] = system: windgrass; test: Test Example 4: herbicidal effect by soil treatment (Table 19, symbol L); assay type: in vivo, windgrass (Apera spica-venti); conditions: amount of applied herbicide 320 g/ha
Outline: as §2

[11] = system: velvetleaf; test: Test Example 4: herbicidal effect by soil treatment (Table 19, symbol M); assay type: in vivo, velvetleaf (Abutilon theophrasti); conditions: amount of applied herbicide 320 g/ha
Outline: as §2

[12] = system: redroot pigweed; test: Test Example 4: herbicidal effect by soil treatment (Table 19, symbol N); assay type: in vivo, redroot pigweed (Amaranthus retroflexus); conditions: amount of applied herbicide 320 g/ha
Outline: as §2

[13] = system: lambsquarters; test: Test Example 4: herbicidal effect by soil treatment (Table 19, symbol O); assay type: in vivo, lambsquarters (Chenopodium album); conditions: amount of applied herbicide 320 g/ha
Outline: as §2

[14] = system: chickweed; test: Test Example 4: herbicidal effect by soil treatment (Table 19, symbol P); assay type: in vivo, common chickweed (Stellaria media); conditions: amount of applied herbicide 320 g/ha
Outline: as §2

[15] = system: persian speedwell; test: Test Example 4: herbicidal effect by soil treatment (Table 19, symbol R); assay type: in vivo, Persian speedwell (Veronica persica); conditions: amount of applied herbicide 320 g/ha
Outline: as §2

[16] = system: southern crabgrass; test: Test Example 5: herbicidal effect by foliage application, plastic box (Table 20, symbol F); assay type: in vivo, southern crabgrass (Digitaria ciliaris); conditions: 320 g/ha, foliage application after 14-day growth, evaluated three weeks after application
Outline: (§3)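 Sow seeds spot-wise in sterilized diluvial soil; cover with ~1.5 cm soil. Grow 14 days in greenhouse, 25° C. to 30° C. Spray foliage with emulsion diluted to predetermined amount. Rate effect after 3 weeks.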

[17] = system: green foxtail; test: Test Example 5: herbicidal effect by foliage application, plastic box (Table 20, symbol G); assay type: in vivo, green foxtail (Setaria viridis); conditions: 320 g/ha, foliage application after 14-day growth, evaluated three weeks after application
Outline: as §3

[18] = system: barnyard grass; test: Test Example 5: herbicidal effect by foliage application, plastic box (Table 20, symbol H); assay type: in vivo, barnyard grass (Echinochloa crus-galli); conditions: 320 g/ha, foliage application after 14-day growth, evaluated three weeks after application
Outline: as §3

[19] = system: wild oat; test: Test Example 5: herbicidal effect by foliage application, plastic box (Table 20, symbol I); assay type: in vivo, wild oat (Avena fatua); conditions: 320 g/ha, foliage application after 14-day growth, evaluated three weeks after application
Outline: as §3

[20] = system: blackgrass; test: Test Example 5: herbicidal effect by foliage application, plastic box (Table 20, symbol J); assay type: in vivo, blackgrass (Alopecurus myosuroides); conditions: 320 g/ha, foliage application after 14-day growth, evaluated three weeks after application
Outline: as §3

[21] = system: Italian ryegrass; test: Test Example 5: herbicidal effect by foliage application, plastic box (Table 20, symbol K); assay type: in vivo, Italian ryegrass (Lolium multiflorum); conditions: 320 g/ha, foliage application after 14-day growth, evaluated three weeks after application
Outline: as §3

[22] = system: windgrass; test: Test Example 5: herbicidal effect by foliage application, plastic box (Table 20, symbol L); assay type: in vivo, windgrass (Apera spica-venti); conditions: 320 g/ha, foliage application after 14-day growth, evaluated three weeks after application
Outline: as §3

[23] = system: velvetleaf; test: Test Example 5: herbicidal effect by foliage application, plastic box (Table 20, symbol M); assay type: in vivo, velvetleaf (Abutilon theophrasti); conditions: 320 g/ha, foliage application after 14-day growth, evaluated three weeks after application
Outline: as §3

[24] = system: redroot pigweed; test: Test Example 5: herbicidal effect by foliage application, plastic box (Table 20, symbol N); assay type: in vivo, redroot pigweed (Amaranthus retroflexus); conditions: 320 g/ha, foliage application after 14-day growth, evaluated three weeks after application
Outline: as §3

[25] = system: lambsquarters; test: Test Example 5: herbicidal effect by foliage application, plastic box (Table 20, symbol O); assay type: in vivo, lambsquarters (Chenopodium album); conditions: 320 g/ha, foliage application after 14-day growth, evaluated three weeks after application
Outline: as §3

[26] = system: chickweed; test: Test Example 5: herbicidal effect by foliage application, plastic box (Table 20, symbol P); assay type: in vivo, common chickweed (Stellaria media); conditions: 320 g/ha, foliage application after 14-day growth, evaluated three weeks after application
Outline: as §3

[27] = system: persian speedwell; test: Test Example 5: herbicidal effect by foliage application, plastic box (Table 20, symbol R); assay type: in vivo, Persian speedwell (Veronica persica); conditions: 320 g/ha, foliage application after 14-day growth, evaluated three weeks after application
Outline: as §3

`CCCC(=O)Oc1c(C)nn(C)c(=O)c1-c1c(-c2ccc(F)cc2OC)sc2c(Cl)cccc12` [4-034] was tested, and the “herbicidal effect on barnyard grass (H)” value [1] was 4 (Herbicidal rate of 70% or more and less than 90%), the “herbicidal effect on Chinese sprangletop (D)” value [2] was 5 (Herbicidal rate of 90% or more (almost completely withered)) and the “herbicidal effect on rice flat sedge (E)” value [3] was 4 (Herbicidal rate of 70% or more and less than 90%). The “Herbicidal effect by soil treatment, F: southern crabgrass” value [4] was 3 (Herbicidal rate of 40% or more and less than 70%), the “Herbicidal effect by soil treatment, G: green foxtail” value [5] was 4 (Herbicidal rate of 70% or more and less than 90%) and the “Herbicidal effect by soil treatment, H: barnyard grass” value [6] was 3 (Herbicidal rate of 40% or more and less than 70%). The “Herbicidal effect by soil treatment, I: wild oat” value [7] was 0 (Herbicidal rate of 5% or less (almost no effect)), the “Herbicidal effect by soil treatment, J: blackgrass” value [8] was 0 (Herbicidal rate of 5% or less (almost no effect)) and the “Herbicidal effect by soil treatment, K: Italian ryegrass” value [9] was 0 (Herbicidal rate of 5% or less (almost no effect)). For the same molecule, the “Herbicidal effect by soil treatment, L: windgrass” value [10] was 0 (Herbicidal rate of 5% or less (almost no effect)), the “Herbicidal effect by soil treatment, M: velvetleaf” value [11] was 2 (Herbicidal rate of 20% or more and less than 40%) and the “Herbicidal effect by soil treatment, N: redroot pigweed” value [12] was 4 (Herbicidal rate of 70% or more and less than 90%). For the same molecule, the “Herbicidal effect by soil treatment, O: lambsquarters” value [13] was 3 (Herbicidal rate of 40% or more and less than 70%), the “Herbicidal effect by soil treatment, P: chickweed” value [14] was 0 (Herbicidal rate of 5% or less (almost no effect)) and the “Herbicidal effect by soil treatment, R: persian speedwell” value [15] was 0 (Herbicidal rate of 5% or less (almost no effect)). The “herbicidal effect on F: southern crabgrass (evaluation grade 0-5)” value [16] was 0 (Herbicidal rate of 5% or less (almost no effect)), the “herbicidal effect on G: green foxtail (evaluation grade 0-5)” value [17] was 3 (Herbicidal rate of 40% or more and less than 70%) and the “herbicidal effect on H: barnyard grass (evaluation grade 0-5)” value [18] was 3 (Herbicidal rate of 40% or more and less than 70%). The “herbicidal effect on I: wild oat (evaluation grade 0-5)” value [19] was 0 (Herbicidal rate of 5% or less (almost no effect)), the “herbicidal effect on J: blackgrass (evaluation grade 0-5)” value [20] was 0 (Herbicidal rate of 5% or less (almost no effect)) and the “herbicidal effect on K: Italian ryegrass (evaluation grade 0-5)” value [21] was 0 (Herbicidal rate of 5% or less (almost no effect)). For the same molecule, the “herbicidal effect on L: windgrass (evaluation grade 0-5)” value [22] was 5 (Herbicidal rate of 90% or more (almost completely withered)), the “herbicidal effect on M: velvetleaf (evaluation grade 0-5)” value [23] was 3 (Herbicidal rate of 40% or more and less than 70%) and the “herbicidal effect on N: redroot pigweed (evaluation grade 0-5)” value [24] was 1 (Herbicidal rate of 5% or more and less than 20%). For the same molecule, the “herbicidal effect on O: lambsquarters (evaluation grade 0-5)” value [25] was 0 (Herbicidal rate of 5% or less (almost no effect)), the “herbicidal effect on P: chickweed (evaluation grade 0-5)” value [26] was 5 (Herbicidal rate of 90% or more (almost completely withered)) and the “herbicidal effect on R: persian speedwell (evaluation grade 0-5)” value [27] was 4 (Herbicidal rate of 70% or more and less than 90%).
